As a reminder, the pIC50 is the IC50 on a negative log10 scale, so that one unit is a factor of ten. A lower pIC50 goes with a high IC50.

Test [1] has as its target IL-2-Inducible T-Cell Kinase (ITK) (Homo sapiens (Human), UniProt Q08881). The experiment in a line: ITK enzyme assay (IL-2-inducible T-cell kinase activity). The conditions noted are these: geometric mean of count n. Type of test: biochemical. The gist of the method: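 Full-length N-Flag/C-His human ITK, pre-incubated 30 min at RT with compound. Reaction in HEPES pH 7.5 buffer with MgCl2, glutathione, gelatin and Brij-35, started with BTK peptide substrate, 60 min at RT. EDTA stop, PT66/APC TR-FRET detection overnight; IC50 fitted by four-parameter logistic.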

The subject of test [2] is activated CD4+ human T-cells (IL-2). The experiment in a line: IL-2 inhibition in supernatants from activated CD4+ human T-cells (cisbio HTRF). The test is classed as cell-based. Conditions: T-cell; CD3/CD28-activated CD4+ human T cells, ImmunoCult stimulation 20 to 24 hrs; geometric mean of count n. The method, boiled down: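 Primary human CD4+ T cells activated with CD3/CD28 for 3 days and expanded to 7-9 days total, plated at 30,000 cells/well. Cells preincubated 15 min with compound, then stimulated with ImmunoCult (1:50 final) for 20-24 h at 37° C. Supernatant IL-2 measured by HTRF (665/615 nm); IC50 from four-parameter logistic fit.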
A general note: In TR-FRET formats the signal depends on donor and acceptor labels being close together.

pIC50: −log10 of the molar value.

Sequence of IL-2-Inducible T-Cell Kinase (ITK) (Q08881 whole entry): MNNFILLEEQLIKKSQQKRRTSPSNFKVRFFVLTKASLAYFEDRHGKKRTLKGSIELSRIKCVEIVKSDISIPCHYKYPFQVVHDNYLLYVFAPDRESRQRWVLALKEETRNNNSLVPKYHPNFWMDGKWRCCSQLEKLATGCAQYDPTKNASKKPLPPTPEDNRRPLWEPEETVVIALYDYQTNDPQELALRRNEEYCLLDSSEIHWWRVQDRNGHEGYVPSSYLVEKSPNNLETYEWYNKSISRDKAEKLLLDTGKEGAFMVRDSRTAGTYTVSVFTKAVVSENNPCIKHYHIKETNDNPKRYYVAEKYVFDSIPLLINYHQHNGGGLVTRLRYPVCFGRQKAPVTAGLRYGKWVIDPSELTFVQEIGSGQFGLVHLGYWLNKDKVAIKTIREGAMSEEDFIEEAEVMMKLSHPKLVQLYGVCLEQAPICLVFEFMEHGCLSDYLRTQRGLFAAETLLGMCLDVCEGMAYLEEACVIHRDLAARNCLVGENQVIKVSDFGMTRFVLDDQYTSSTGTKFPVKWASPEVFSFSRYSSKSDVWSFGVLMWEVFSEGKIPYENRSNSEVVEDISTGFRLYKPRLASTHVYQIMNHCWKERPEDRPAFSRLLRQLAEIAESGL

Turning to `CN(C(=O)[C@@H]1C[C@@H]2[C@H](C1)C2(F)F)c1cnc2nc(-c3n[nH]c4c3C[C@@H]3C[C@]3(C)C4)[nH]c2c1` [Example 67, (1R,3s,5S)-6,6-Difluoro-N-methyl-N-(2-((4aS,5aR)-5a-methyl-1,4,4a,5,5a,6-hexahydrocyclopropa[f]indazol-3-yl)-1H-imidazo[4,5-b]pyridin-6-yl)bicyclo[3.1.0]hexane-3-carboxamide], the pIC50 in test [1] was 7.92; in test [2], 7.23.
For `CN(C(=O)[C@H]1CCCCO1)c1cnc2nc(-c3n[nH]c4c3C[C@@H]3C[C@]3(C)C4)[nH]c2c1` [Example 68, (R)-N-Methyl-N-(2-((4aS,5aR)-5a-methyl-1,4,4a,5,5a,6-hexahydrocyclopropa[f]indazol-3-yl)-1H-imidazo[4,5-b]pyridin-6-yl)tetrahydro-2H-pyran-2-carboxamide], in that order: 6.97 and 6.75.
Taken in the same sequence, the figures for `CN(C(=O)[C@H]1[C@@H]2COC[C@@H]21)c1cnc2nc(-c3n[nH]c4c3C[C@@H]3C[C@]3(C)C4)[nH]c2c1` [Example 69, (1R,5S,6r)-N-Methyl-N-(2-((4aS,5aR)-5a-methyl-1,4,4a,5,5a,6-hexahydrocyclopropa[f]indazol-3-yl)-1H-imidazo[4,5-b]pyridin-6-yl)-3-oxabicyclo[3.1.0]hexane-6-carboxamide] were 6.53 and 5.94.
Taken in the same sequence, the figures for `CN(C(=O)C1(C)CCOCC1)c1cnc2nc(-c3n[nH]c4c3C[C@@H]3C[C@]3(C)C4)[nH]c2c1` [Example 70, N,4-Dimethyl-N-(2-((4aS,5aR)-5a-methyl-1,4,4a,5,5a,6-hexahydrocyclopropa[f]indazol-3-yl)-1H-imidazo[4,5-b]pyridin-6-yl)tetrahydro-2H-pyran-4-carboxamide] were 7.03 and 6.34.
Regarding `CCCC(=O)N(C)c1cnc2nc(-c3n[nH]c4c3C[C@@H]3C[C@]3(C)C4)[nH]c2c1` [Example 71, N-Methyl-N-(2-((4aS,5aR)-5a-methyl-1,4,4a,5,5a,6-hexahydrocyclopropa[f]indazol-3-yl)-1H-imidazo[4,5-b]pyridin-6-yl)butyramide], the pIC50 in test [1] was 7.38; in test [2], 6.50.
Consider `CC(C)CC(=O)N(C)c1cnc2nc(-c3n[nH]c4c3C[C@@H]3C[C@]3(C)C4)[nH]c2c1` [Example 72, N,3-Dimethyl-N-(2-((4aS,5aR)-5a-methyl-1,4,4a,5,5a,6-hexahydrocyclopropa[f]indazol-3-yl)-1H-imidazo[4,5-b]pyridin-6-yl)butanamide], for which the figures for the negative-log IC50 (pIC50) in test [1] and in test [2] were 7.41 and 6.61, respectively.
With `CN(C(=O)CC(C)(C)C)c1cnc2nc(-c3n[nH]c4c3C[C@@H]3C[C@]3(C)C4)[nH]c2c1` [Example 73, N,3,3-Trimethyl-N-(2-((4aS,5aR)-5a-methyl-1,4,4a,5,5a,6-hexahydrocyclopropa[f]indazol-3-yl)-1H-imidazo[4,5-b]pyridin-6-yl)butanamide], the negative-log IC50 (pIC50) in test [1] is 7.24; in test [2], 6.30.
Consider `CC(C)CCC(=O)N(C)c1cnc2nc(-c3n[nH]c4c3C[C@@H]3C[C@]3(C)C4)[nH]c2c1` [Example 74, N,4-Dimethyl-N-(2-((4aS,5aR)-5a-methyl-1,4,4a,5,5a,6-hexahydrocyclopropa[f]indazol-3-yl)-1H-imidazo[4,5-b]pyridin-6-yl)pentanamide], for which the results for the negative logarithm of the IC50 (pIC50) in test [1] and in test [2] were 7.30 and 6.51, respectively.
Taken in the same sequence, the figures for `CC(=O)N(CC(=O)N(C)c1cnc2nc(-c3n[nH]c4c3C[C@@H]3C[C@]3(C)C4)[nH]c2c1)C(C)C` [Example 75, 2-(N-Isopropylacetamido)-N-methyl-N-(2-((4aS,5aR)-5a-methyl-1,4,4a,5,5a,6-hexahydrocyclopropa[f]indazol-3-yl)-1H-imidazo[4,5-b]pyridin-6-yl)acetamide] were 7.24 and 6.06.
Regarding `CCC(C)CC(=O)N(C)c1cnc2nc(-c3n[nH]c4c3C[C@@H]3C[C@]3(C)C4)[nH]c2c1` (stereo partly drawn) [Example 76, N,3-Dimethyl-N-(2-((4aS,5aR)-5a-methyl-1,4,4a,5,5a,6-hexahydrocyclopropa[f]indazol-3-yl)-1H-imidazo[4,5-b]pyridin-6-yl)pentanamide], the pIC50 is 7.29 in test [1] and 6.41 in test [2].
Consider `CN(C(=O)CC1CCC1)c1cnc2nc(-c3n[nH]c4c3C[C@@H]3C[C@]3(C)C4)[nH]c2c1` [Example 77, 2-Cyclobutyl-N-methyl-N-(2-((4aS,5aR)-5a-methyl-1,4,4a,5,5a,6-hexahydrocyclopropa[f]indazol-3-yl)-1H-imidazo[4,5-b]pyridin-6-yl)acetamide], for which the negative logarithm of the IC50 (pIC50) in test [1] was 7.57; in test [2], 6.61.
Turning to `CC(C)C(=O)N(C)CC(=O)N(C)c1cnc2nc(-c3n[nH]c4c3C[C@@H]3C[C@]3(C)C4)[nH]c2c1` [Example 78, N-Methyl-N-(2-(methyl(2-((4aS,5aR)-5a-methyl-1,4,4a,5,5a,6-hexahydrocyclopropa[f]indazol-3-yl)-1H-imidazo[4,5-b]pyridin-6-yl)amino)-2-oxoethyl)isobutyramide], the negative logarithm of the IC50 (pIC50) in test [1] is 7.46; in test [2], 6.26.
Taken in the same sequence, the figures for `CN(C(=O)CN1CCCCC1=O)c1cnc2nc(-c3n[nH]c4c3C[C@@H]3C[C@]3(C)C4)[nH]c2c1` [Example 79, N-Methyl-N-(2-((4aS,5aR)-5a-methyl-1,4,4a,5,5a,6-hexahydrocyclopropa[f]indazol-3-yl)-1H-imidazo[4,5-b]pyridin-6-yl)-2-(2-oxopiperidin-1-yl)acetamide] were 7.37 and 5.80.
For `CN(C(=O)C1CCCC1)c1cnc2nc(-c3n[nH]c4c3C[C@@H]3C[C@]3(C)C4)[nH]c2c1` [Example 81, N-Methyl-N-(2-((4aS,5aR)-5a-methyl-1,4,4a,5,5a,6-hexahydrocyclopropa[f]indazol-3-yl)-1H-imidazo[4,5-b]pyridin-6-yl)cyclopentanecarboxamide], in that order: 7.68 and 6.74.
Taken in the same sequence, the figures for `CCC(CC)C(=O)N(C)c1cnc2nc(-c3n[nH]c4c3C[C@@H]3C[C@]3(C)C4)[nH]c2c1` [Example 82, 2-Ethyl-N-methyl-N-(2-((4aS,5aR)-5a-methyl-1,4,4a,5,5a,6-hexahydrocyclopropa[f]indazol-3-yl)-1H-imidazo[4,5-b]pyridin-6-yl)butanamide] were 7.70 and 6.75.
Consider `CC[C@H](C)C(=O)N(C)c1cnc2nc(-c3n[nH]c4c3C[C@@H]3C[C@]3(C)C4)[nH]c2c1` [Example 83, (S)-N,2-Dimethyl-N-(2-((4aS,5aR)-5a-methyl-1,4,4a,5,5a,6-hexahydrocyclopropa[f]indazol-3-yl)-1H-imidazo[4,5-b]pyridin-6-yl)butanamide], for which the pIC50 in test [1] is 7.33; in test [2], 6.43.
As for `CN(C(=O)C12CC(C1)C2)c1cnc2nc(-c3n[nH]c4c3C[C@@H]3C[C@]3(C)C4)[nH]c2c1` [Example 85, N-Methyl-N-(2-((4aS,5aR)-5a-methyl-1,4,4a,5,5a,6-hexahydrocyclopropa[f]indazol-3-yl)-1H-imidazo[4,5-b]pyridin-6-yl)bicyclo[1.1.1]pentane-1-carboxamide], the values for the negative logarithm of the IC50 (pIC50) in test [1] and in test [2] were 7.04 and 5.91, respectively.
`CC[C@@H](C)C(=O)N(C)c1cnc2nc(-c3n[nH]c4c3C[C@@H]3C[C@]3(C)C4)[nH]c2c1` [Example 87, (R)-N,2-Dimethyl-N-(2-((4aS,5aR)-5a-methyl-1,4,4a,5,5a,6-hexahydrocyclopropa[f]indazol-3-yl)-1H-imidazo[4,5-b]pyridin-6-yl)butanamide]: the pIC50 in test [1] was 7.59; in test [2] it was 6.61.
With `CCC(C)(C)C(=O)N(C)c1cnc2nc(-c3n[nH]c4c3C[C@@H]3C[C@]3(C)C4)[nH]c2c1` [Example 88, N,2,2-Trimethyl-N-(2-((4aS,5aR)-5a-methyl-1,4,4a,5,5a,6-hexahydrocyclopropa[f]indazol-3-yl)-1H-imidazo[4,5-b]pyridin-6-yl)butanamide], the pIC50 was 6.93 in test [1] and 6.09 in test [2].
For `CN(c1cnc2nc(-c3n[nH]c4c3C[C@@H]3C[C@]3(C)C4)[nH]c2c1)C(=O)[C@H]1C[C@@H](C)C1` [Example 89, (1s,3R)-N,3-Dimethyl-N-(2-((4aS,5aR)-5a-methyl-1,4,4a,5,5a,6-hexahydrocyclopropa[f]indazol-3-yl)-1H-imidazo[4,5-b]pyridin-6-yl)cyclobutane-1-carboxamide], in that order: 7.57 and 6.49.
For `CN(C(=O)C1CCOCC1)c1cnc2[nH]c(-c3n[nH]c4c3CCC(C)(C)C4)nc2c1` [Example 90, N-(2-(6,6-Dimethyl-4,5,6,7-tetrahydro-1H-indazol-3-yl)-3H-imidazo[4,5-b]pyridin-6-yl)-N-methyltetrahydro-2H-pyran-4-carboxamide], in that order: 6.26 and 6.05.
For `CN(C(=O)CC(C)(C)C)c1cnc2[nH]c(-c3n[nH]c4c3CCC(C)(C)C4)nc2c1` [Example 91, N-(2-(6,6-Dimethyl-4,5,6,7-tetrahydro-1H-indazol-3-yl)-3H-imidazo[4,5-b]pyridin-6-yl)-N,3,3-trimethylbutanamide], the negative-log IC50 (pIC50) was 6.84 in test [1] and 6.42 in test [2].
`CC[C@H](C)C(=O)N(C)c1cnc2[nH]c(-c3n[nH]c4c3CCC(C)(C)C4)nc2c1` [Example 92, (S)-N-(2-(6,6-Dimethyl-4,5,6,7-tetrahydro-1H-indazol-3-yl)-3H-imidazo[4,5-b]pyridin-6-yl)-N,2-dimethylbutanamide]: the figures for the negative-log IC50 (pIC50) in test [1] and in test [2] were 6.16 and below 5.00, respectively.

The values above are taken from patent publication US20240124439A1, “Pyrido[2,3-D]Imidazole Derivatives and Their Use As Inhibitors of ITK for the Treatment of Skin Disease” (Pfizer Inc., priority 2020, published 2024).
